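Grown in 96-well plates, cells were treated for 48 hours with each compound at five concentrations. Insufficient inhibition: endpoint recorded as highest concentration tested. GI50 marks 50% less growth. The concentration for full growth arrest is given as TGI.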 Some results are limits rather than exact numbers.

Our source for the TGI and GI50 values is PubChem BioAssay (NCI).

Some test systems named below: UACC-62 melanoma; HCC-2998 colon; OVCAR-8 ovarian; UO-31 renal; UACC-257 melanoma; SN12C renal; SF-268 CNS; SW-620 colon; K-562 leukemia.
What all share (assay): NCI tumour cell line growth inhibition, 48 h

For the compound `COC1C(CN[N+](=O)CC2OC3OC(C)(C)OC3C2OC)OC2OC(C)(C)OC21` (stereo not drawn), the TGI with UACC-62 melanoma, in the test with HCC-2998 colon, in the test with OVCAR-8 ovarian, in the test on UO-31 renal, in the test on UACC-257 melanoma and with SN12C renal was above 100 µM each time. For the same compound, the TGI in the test on SF-268 CNS and in the test on SW-620 colon was above 100 µM in each case.
Consider `CCCCNC1=C(C(=O)OCC)C(=O)CO1`, for which the TGI with UACC-62 melanoma, in the test on HCC-2998 colon, with K-562 leukemia, with OVCAR-8 ovarian, in the test with UO-31 renal and in the test with UACC-257 melanoma was above 100 µM in each case. In addition, the TGI in the test on SN12C renal, in the test with SF-268 CNS and with SW-620 colon was above 100 µM throughout.
Take `CN(C(=O)C12C3C4C1C1C2C3C41C(=O)C(C)(C)C)C(C)(C)C` (stereo not drawn): the TGI in the test on UACC-62 melanoma, with HCC-2998 colon, in the test with K-562 leukemia, with OVCAR-8 ovarian, with UO-31 renal and in the test with UACC-257 melanoma was above 100 µM each time. The TGI with SN12C renal, in the test with SF-268 CNS and with SW-620 colon was above 100 µM in each case.
On to `CSc1ccc(C2=NN(C(C)=O)C(c3cc(C)cs3)C2)cc1` (stereo not drawn), for which the GI50 with UACC-62 melanoma is 11.2 µM; in the test with HCC-2998 colon it was 20 µM; with K-562 leukemia, 9.31 µM; in the test with OVCAR-8 ovarian it was 32 µM; in the test on UO-31 renal, 19.9 µM; with UACC-257 melanoma it was 28.4 µM. Also, the GI50 was 26.2 µM in the test on SN12C renal, 35.6 µM in the test with SF-268 CNS and 38.2 µM in the test with SW-620 colon. Besides, the TGI in the test on UACC-62 melanoma was 98.4 µM; with HCC-2998 colon it was above 100 µM; in the test with K-562 leukemia, above 100 µM; with OVCAR-8 ovarian, above 100 µM; in the test with UO-31 renal, above 100 µM; in the test on UACC-257 melanoma, 96.1 µM. Moreover, the TGI in the test on SN12C renal, in the test on SF-268 CNS and in the test with SW-620 colon was above 100 µM in each case.
Consider `CCCCC/C(C=C(C#N)C#N)=C/c1ccccc1`, for which the GI50 is 2.84 µM with UACC-62 melanoma; 4.69 µM with HCC-2998 colon; 3.8 µM in the test with K-562 leukemia; 3.34 µM in the test on OVCAR-8 ovarian; 7.08 µM with UO-31 renal; 17.2 µM in the test with UACC-257 melanoma. In addition, the GI50 in the test with SN12C renal is 3.74 µM; with SF-268 CNS, 2.45 µM; in the test on SW-620 colon it was 3.12 µM. Further, the TGI in the test on UACC-62 melanoma was 11.9 µM; in the test with HCC-2998 colon, 9.77 µM; in the test on K-562 leukemia, 35.3 µM; in the test with OVCAR-8 ovarian, above 100 µM; in the test on UO-31 renal, 22.1 µM; in the test with UACC-257 melanoma, 47.6 µM. In addition, the TGI was 16.9 µM with SN12C renal, 9.51 µM with SF-268 CNS and 10.9 µM with SW-620 colon.
Turning to `N#CC(C(=N/O)/C(=N/O)C(C#N)c1ccc(Cl)cc1)c1ccc(Cl)cc1` (stereo not drawn), the TGI with UACC-62 melanoma, in the test with HCC-2998 colon, in the test on OVCAR-8 ovarian, in the test with UO-31 renal, in the test with UACC-257 melanoma and in the test on SN12C renal was above 100 µM each time. For the same compound, the TGI in the test on SF-268 CNS and in the test with SW-620 colon was above 100 µM each time.
As for `COC(=O)C[C@H]1CCC2(OCCO2)[C@]1(C)C(=O)OC`, the TGI with UACC-62 melanoma, with K-562 leukemia, in the test on OVCAR-8 ovarian, in the test on UO-31 renal, in the test with UACC-257 melanoma and in the test with SN12C renal was above 100 µM each time. Also, the TGI with SF-268 CNS and with SW-620 colon was above 100 µM each time.
With `Cn1cc(-c2cnc3ccc(NC(=O)Nc4ccc(F)c(Br)c4)cc3n2)cn1`, the GI50 in the test on UACC-62 melanoma is 1.68 µM; with HCC-2998 colon, 1.79 µM; with OVCAR-8 ovarian it was 1.83 µM; in the test with UO-31 renal it was 1.42 µM; with UACC-257 melanoma it was 1.92 µM; with SN12C renal, 1.87 µM. Further, the results for the GI50 in the test with SF-268 CNS and in the test with SW-620 colon were 2.38 µM and 1.85 µM, respectively. For the same compound, the TGI was found to be 3.74 µM in the test on UACC-62 melanoma; 3.5 µM with HCC-2998 colon; 4.34 µM in the test on OVCAR-8 ovarian; 3.07 µM with UO-31 renal; 4.57 µM in the test with UACC-257 melanoma; 4.79 µM in the test on SN12C renal. Further, the figures for the TGI in the test on SF-268 CNS and in the test with SW-620 colon were 7 µM and 3.83 µM, respectively.
Take `O=[N+]([O-])/C=C\c1ccc(Cl)c(Cl)c1`: the GI50 in the test on UACC-62 melanoma is 10.9 µM; with K-562 leukemia, 0.379 µM; with OVCAR-8 ovarian, 1.94 µM; in the test on UO-31 renal it was 1.08 µM; in the test with UACC-257 melanoma, 1.4 µM; with SN12C renal, 4.31 µM. The GI50 was 2.42 µM in the test with SF-268 CNS and 1.3 µM in the test with SW-620 colon. Also, the TGI in the test on UACC-62 melanoma was 30.1 µM; in the test on K-562 leukemia, 5.08 µM; in the test with OVCAR-8 ovarian it was 4.16 µM; in the test with UO-31 renal, 2.33 µM; with UACC-257 melanoma, 2.89 µM; with SN12C renal, 62.5 µM. For the same compound, the TGI in the test on SF-268 CNS stood at 6.97 µM; in the test on SW-620 colon, 3.3 µM.
Consider `CCOc1ccc2c(c1)[n+]([O-])c(S(=O)(=O)c1ccc(C)cc1)c(N)[n+]2[O-]`, for which the TGI with UACC-62 melanoma, in the test on HCC-2998 colon, in the test on K-562 leukemia, with OVCAR-8 ovarian, in the test with UO-31 renal and with UACC-257 melanoma was above 100 µM throughout. Moreover, the TGI with SF-268 CNS and in the test on SW-620 colon was above 100 µM throughout.
